Test results taken from PubChem BioAssay AID2633 (Broad Institute, 2010).
Calls of active or inactive are those of the source. No rule for the calls is given here.

tested on: DRD oncogenic fibroblast cytotoxicity, fluorescence viability; assay: cytotoxicity toward DRD oncogenic fibroblasts, dose response, cell-based, fluorescence viability readout (AID 2633)

Row | SMILES | EC50
1 | COc1ccc(C[C@H]2NC[C@H](O)[C@H]2OC(C)=O)cc1 | 44.7 nM
2 | O=C(NCc1cccnc1)c1ccc(NC(=O)c2ccc([N+](=O)[O-])cc2)cc1 | > 6670 nM (inactive)
3 | C=C1C(=O)O[C@@H]2C[C@@H](C)[C@@H]3C=CC(=O)[C@@]3(C)[C@@H](OC(=O)CC(=O)O[C@H]3[C@@H]4C(=C)C(=O)O[C@@H]4C[C@@H](C)[C@@H]4C=CC(=O)[C@]43C)[C@H]12 | 32.4 nM
4 | COc1ccc(N(C(=O)CCl)C(C(=O)NCCc2ccccc2)c2cccs2)cc1 (stereo not drawn) | 447 nM
5 | CC[C@@]1(O)C(=O)OCc2c1cc1n(c2=O)Cc2cc3c(N)cccc3nc2-1 | 129 nM
6 | COC(=O)[C@@H]1Cc2c([nH]c3ccccc23)C(C)(C)N1C(=O)CCl | 1010 nM
7 | CC(C)c1onc(C(=O)N2CCN(C(c3ccccc3)c3ccccc3)CC2)c1[N+](=O)[O-] | 617 nM
8 | O=C(N/N=C/c1cccnc1)c1ccc(NC(=O)C(c2ccccc2)c2ccccc2)cc1 | > 6670 nM (inactive)
9 | CCc1ccc(/C=C2/SC(=S)N(CCC(=O)Nc3cccnc3)C2=O)cc1 | > 6670 nM (inactive)
10 | COc1ccc(CN(CCC(c2ccccc2)c2ccc(OC(C)C)cc2)C(=O)CCl)cc1OC (stereo not drawn) | 1480 nM
11 | Cc1ccc(C2CC(c3cccs3)=NN2C(=O)CCl)cc1 (stereo not drawn) | 1420 nM
12 | COc1ccc(OC)c(Nc2nc(N)nc(CCl)n2)c1 | 1520 nM
13 | CCc1ccc(/C=C2/SC(=S)N(CCC(=O)NCCCN3CCOCC3)C2=O)cc1 | 5320 nM
14 | CCCCCCCN(C(=O)CCl)c1cccc(C)c1 | 1090 nM
15 | COc1ccc(-c2nnc(NC(=O)c3ccc(S(=O)(=O)N4CCc5ccccc5C4)cc3)o2)cc1 | > 6670 nM (inactive)
16 | CC(Oc1ccc(Cl)cc1Cl)c1nc(-c2ccc(NC(=O)c3cccnc3)cc2)no1 (stereo not drawn) | > 6670 nM (inactive)
17 | Oc1ccccc1N=Nc1nc(-c2ccccc2)c(-c2ccccc2)[nH]1 | 378 nM
18 | O=C(CCCCCN1C(=O)c2cccc3cccc(c23)C1=O)NCc1cccnc1 | > 6670 nM (inactive)
19 | COc1ccc(S(=O)(=O)N2CCOCC2)cc1NC(=O)CCNC(=O)c1ccc(Br)cc1 | > 6670 nM (inactive)
20 | COc1ccc(C(C(=O)NC2CCCCC2)N(C(=O)CCl)c2cccc(Cl)c2)cc1 (stereo not drawn) | 48.6 nM

Row | SMILES | EC50
21 | O=C1SC(Cc2ccccc2)C(=O)N1c1ccccc1 (stereo not drawn) | > 6670 nM (inactive)
22 | CC[C@H]1CN2CCc3cc(OC)c(OC)cc3[C@@H]2C[C@@H]1C[C@H]1NCCc2cc(OC)c(OC)cc21 | 9.12 nM
23 | Cc1onc(C(=O)N2CCN(C(c3ccccc3)c3ccccc3)CC2)c1[N+](=O)[O-] | 1300 nM
24 | COc1ccc(/C=N/NC(=O)c2[nH]c3ccc(Br)cc3c2-c2ccccc2)cc1 | 134 nM
25 | Cc1cccc(OCC(=O)Nc2ccc(C(=O)NCc3cccnc3)cc2)c1 | > 6670 nM (inactive)
26 | COc1ccc(N(C(=O)CCl)C(C(=O)NCCc2ccccc2)c2cccs2)cc1Cl (stereo not drawn) | 25.3 nM
27 | Cc1ccc(Nc2nc(N)nc(CCl)n2)c(C)c1 | 499 nM
28 | Cc1cccc(Nc2nc(N)nc(CCl)n2)c1 | 2180 nM
29 | CC[C@@]1(O)C(=O)OCc2c1cc1n(c2=O)Cc2cc3ccccc3nc2-1 | 454 nM
30 | CC(C)C(=O)Nc1ccc(C(=O)NCc2cccnc2)cc1 | > 6670 nM (inactive)
31 | COC(=O)C[C@](O)(CCCC(C)(C)O)C(=O)O[C@@H]1C(OC)=C[C@]23CCCN2CCc2cc4c(cc2[C@H]13)OCO4 | 4.64 nM
32 | CC[C@@]1(O)C(=O)OCc2c1cc1n(c2=O)Cc2cc3c(NC(=O)CN)cccc3nc2-1 | 4610 nM
33 | CCOc1ccc(CC(=O)Nc2ccc(NC(=O)c3ccco3)cc2)cc1OCC | > 6670 nM (inactive)
34 | O=C(COc1ccc(Cl)cc1)Nc1ccc(C(=O)NCc2cccnc2)cc1 | > 6670 nM (inactive)
35 | O=C(CCl)N=c1sccn1Cc1ccccc1Cl | 126 nM
36 | CC(=O)Nc1ccc(NC(=O)CN(c2cccc([N+](=O)[O-])c2)S(C)(=O)=O)cc1 | > 6670 nM (inactive)
37 | CCN1/C(=C\C=C\C2=[N+](CC)c3ccccc3C2(C)C)C(C)(C)c2ccccc21 | 249 nM
38 | COc1cccc(N(C(=O)CCl)C(C(=O)NCCc2ccccc2)c2cccs2)c1 (stereo not drawn) | 280 nM
39 | Cc1ccc(/C=C2\SC(=S)N(CCCC(=O)N3CCOCC3)C2=O)cc1 | > 6670 nM (inactive)
40 | Nc1nc(CCl)nc(Nc2ccc3ccccc3c2)n1 | 182 nM

Row | SMILES | EC50
41 | Cc1cccnc1Nc1nc(-c2ccccn2)cs1 | 428 nM
42 | CN1CCN(C(=O)CCCN2C(=O)/C(=C/c3cccc(Br)c3)SC2=S)CC1 | > 6670 nM (inactive)
43 | O=C(NCc1cccnc1)c1ccc(NC(=O)c2cccc([N+](=O)[O-])c2)cc1 | > 6670 nM (inactive)
44 | C=CCOc1ccccc1CN(C(=O)CCl)c1ccc2c(c1)OCO2 | 2430 nM
45 | COc1ccc(C(C(=O)NC2CCCCC2)N(C(=O)CCl)c2ccc(C)cc2)cc1 (stereo not drawn) | 737 nM
46 | CC[C@@]1(O)C(=O)OCc2c1cc1n(c2=O)Cc2cc3c(CN(C)C)c(O)ccc3nc2-1 | 820 nM
47 | O=S(=O)(c1ccc2c(c1)C(=NO)c1cc(S(=O)(=O)N3CCCCC3)ccc1-2)N1CCCCC1 | 2120 nM
48 | C/C(=N\Nc1ncc(Cl)cc1Cl)c1ccccn1 | 19.6 nM
49 | Cc1ccccc1Nc1nc(N)nc(CCl)n1 | 1980 nM
50 | Nc1nc(CCl)nc(Nc2cccc3ccccc23)n1 | 660 nM
51 | COc1ccc(Cc2nc(-c3ccc(NC(=O)c4cccnc4)cc3)no2)cc1 | > 6670 nM (inactive)
52 | CCOc1ccc(Nc2nc(N)nc(CCl)n2)cc1 | 575 nM
53 | O=C(Cc1ccc([N+](=O)[O-])cc1)N/N=C/c1ccc([N+](=O)[O-])o1 | > 6670 nM (inactive)
54 | Cc1ccc(C(=O)Sc2cccccc2=O)cc1 | 55.4 nM
55 | CC1=CC(=O)C=C(C)C1=NOc1ccccc1[N+](=O)[O-] | > 6670 nM (inactive)
56 | Cc1ccc(N(C(=O)CCl)C(C(=O)NC2CCCCC2)c2cccnc2)cc1C (stereo not drawn) | 75.6 nM
57 | CCc1ccc(/C=C2\SC(=S)N(CCC(=O)NCCCN3CCOCC3)C2=O)cc1 | 4700 nM
58 | Cc1cccc(Nc2nc(N)nc(CCl)n2)c1C | 568 nM
